Measured values reported in ChEMBL document CHEMBL1146822, “Adenine derived inhibitors of the molecular chaperone HSP90-SAR explained through multiple X-ray structures” (Bioorg Med Chem Lett, 2004).

The compounds below were run on HCT-116 (assay: Cellular activity against human colon tumor cell line, HCT116).
Format: functional

Q: Which GI50 does the source give for `C#CCCCn1c(Cc2cc(OC)c(OC)c(OC)c2Cl)nc2c(N)nc(F)nc21` here?
A: 3.9 µM

Q: How did the GI50 turn out when `C#CCCCn1c(Cc2cc(OC)ccc2OC)nc2c(N)nc(F)nc21` was run?
A: 3.3 µM

Q: How did the GI50 turn out when `CCCCn1c(Cc2cc(OC)ccc2OC)nc2c(N)nc(F)nc21` was run?
A: 3.4 µM
